Measurements: ChEMBL document CHEMBL4680251, “Discovery of a 2-pyridinyl urea-containing compound YD57 as a potent inhibitor of apoptosis signal-regulating kinase 1 (ASK1)” (Eur J Med Chem, 2020)
pIC50: −log10 of the molar value. Calls of active or inactive are those of the source. No cut-off for these calls is given here.

Key:
[1] = biological target: T1, Mitogen-activated protein kinase kinase kinase 5 (Homo sapiens, UniProt Q99683); assay: Inhibition of ASK1 (unknown origin)
T1 sequence (Q99683 whole entry): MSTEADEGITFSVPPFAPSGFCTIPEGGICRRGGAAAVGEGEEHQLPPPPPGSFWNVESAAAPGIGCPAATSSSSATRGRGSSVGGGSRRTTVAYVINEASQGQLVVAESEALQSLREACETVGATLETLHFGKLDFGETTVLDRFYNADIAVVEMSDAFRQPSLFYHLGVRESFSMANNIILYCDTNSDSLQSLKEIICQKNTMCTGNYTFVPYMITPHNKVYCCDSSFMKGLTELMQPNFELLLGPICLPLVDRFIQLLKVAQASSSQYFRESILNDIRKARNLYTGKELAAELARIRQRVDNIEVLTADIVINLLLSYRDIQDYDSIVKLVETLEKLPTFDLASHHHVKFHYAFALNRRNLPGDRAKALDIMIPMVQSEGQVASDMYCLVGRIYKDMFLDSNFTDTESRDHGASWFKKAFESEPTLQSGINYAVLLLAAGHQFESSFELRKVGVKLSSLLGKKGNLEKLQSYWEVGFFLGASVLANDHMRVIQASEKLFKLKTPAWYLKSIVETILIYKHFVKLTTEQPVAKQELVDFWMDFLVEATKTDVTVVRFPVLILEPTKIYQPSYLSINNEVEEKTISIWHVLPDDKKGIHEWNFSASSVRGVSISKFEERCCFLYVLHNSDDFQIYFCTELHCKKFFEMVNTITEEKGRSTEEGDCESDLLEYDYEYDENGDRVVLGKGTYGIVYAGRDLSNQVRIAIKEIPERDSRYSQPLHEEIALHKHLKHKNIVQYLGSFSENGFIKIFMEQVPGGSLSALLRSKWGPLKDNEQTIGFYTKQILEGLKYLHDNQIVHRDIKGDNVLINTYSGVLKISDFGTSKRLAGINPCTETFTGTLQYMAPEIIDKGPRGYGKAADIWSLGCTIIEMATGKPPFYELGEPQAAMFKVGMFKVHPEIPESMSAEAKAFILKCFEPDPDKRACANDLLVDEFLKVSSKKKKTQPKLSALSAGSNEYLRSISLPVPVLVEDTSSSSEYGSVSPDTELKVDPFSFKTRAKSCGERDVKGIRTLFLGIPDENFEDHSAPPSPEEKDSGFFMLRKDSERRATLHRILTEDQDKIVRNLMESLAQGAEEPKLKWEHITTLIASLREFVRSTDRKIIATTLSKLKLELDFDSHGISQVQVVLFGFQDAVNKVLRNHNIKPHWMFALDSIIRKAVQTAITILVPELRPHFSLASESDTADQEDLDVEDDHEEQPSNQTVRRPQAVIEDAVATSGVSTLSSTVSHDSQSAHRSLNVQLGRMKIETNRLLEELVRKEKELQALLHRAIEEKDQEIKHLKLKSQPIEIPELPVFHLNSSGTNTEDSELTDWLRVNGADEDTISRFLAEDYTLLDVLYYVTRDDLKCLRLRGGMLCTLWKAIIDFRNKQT

[2] = biological target: T2, Mitogen-activated protein kinase kinase kinase 6 (Homo sapiens, UniProt O95382); assay: Inhibition of ASK2 (unknown origin)
T2 sequence (O95382 whole entry): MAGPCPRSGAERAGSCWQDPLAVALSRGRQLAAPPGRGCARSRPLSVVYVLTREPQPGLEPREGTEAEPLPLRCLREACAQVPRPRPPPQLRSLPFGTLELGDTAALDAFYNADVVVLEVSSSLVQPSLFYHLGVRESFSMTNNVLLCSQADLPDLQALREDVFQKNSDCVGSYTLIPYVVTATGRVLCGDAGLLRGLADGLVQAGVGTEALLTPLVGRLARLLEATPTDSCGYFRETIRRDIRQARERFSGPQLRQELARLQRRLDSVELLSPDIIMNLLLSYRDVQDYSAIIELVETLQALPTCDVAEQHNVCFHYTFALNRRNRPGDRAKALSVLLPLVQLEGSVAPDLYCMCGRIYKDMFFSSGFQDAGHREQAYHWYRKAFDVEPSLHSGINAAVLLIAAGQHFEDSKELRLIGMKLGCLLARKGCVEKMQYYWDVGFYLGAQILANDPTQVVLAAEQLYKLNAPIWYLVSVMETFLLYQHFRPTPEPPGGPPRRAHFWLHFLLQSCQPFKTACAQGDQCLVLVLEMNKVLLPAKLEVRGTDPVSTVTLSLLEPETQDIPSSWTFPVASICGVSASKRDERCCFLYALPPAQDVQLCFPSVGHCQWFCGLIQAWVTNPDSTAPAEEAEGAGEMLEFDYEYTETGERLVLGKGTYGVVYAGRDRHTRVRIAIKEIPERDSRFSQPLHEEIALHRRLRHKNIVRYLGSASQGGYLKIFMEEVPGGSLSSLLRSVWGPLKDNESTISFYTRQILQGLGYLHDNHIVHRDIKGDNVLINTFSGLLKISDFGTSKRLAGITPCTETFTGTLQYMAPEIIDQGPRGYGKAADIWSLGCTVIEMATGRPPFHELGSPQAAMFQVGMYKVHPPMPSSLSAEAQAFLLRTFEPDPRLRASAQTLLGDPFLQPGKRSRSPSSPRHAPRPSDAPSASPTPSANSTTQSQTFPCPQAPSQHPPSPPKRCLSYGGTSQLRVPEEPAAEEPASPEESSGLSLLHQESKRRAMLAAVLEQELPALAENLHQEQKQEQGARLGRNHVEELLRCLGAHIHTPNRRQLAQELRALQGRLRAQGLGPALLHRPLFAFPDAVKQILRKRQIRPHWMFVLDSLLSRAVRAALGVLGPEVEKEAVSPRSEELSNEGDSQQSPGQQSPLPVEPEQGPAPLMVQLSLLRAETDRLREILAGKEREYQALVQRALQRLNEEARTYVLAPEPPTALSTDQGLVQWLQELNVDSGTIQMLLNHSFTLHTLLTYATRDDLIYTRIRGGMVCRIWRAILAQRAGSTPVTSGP

[3] = biological target: T3, Mitogen-activated protein kinase kinase kinase 7 (Homo sapiens, UniProt O43318); assay: Inhibition of TAK1 (unknown origin)
T3 sequence (O43318 whole entry): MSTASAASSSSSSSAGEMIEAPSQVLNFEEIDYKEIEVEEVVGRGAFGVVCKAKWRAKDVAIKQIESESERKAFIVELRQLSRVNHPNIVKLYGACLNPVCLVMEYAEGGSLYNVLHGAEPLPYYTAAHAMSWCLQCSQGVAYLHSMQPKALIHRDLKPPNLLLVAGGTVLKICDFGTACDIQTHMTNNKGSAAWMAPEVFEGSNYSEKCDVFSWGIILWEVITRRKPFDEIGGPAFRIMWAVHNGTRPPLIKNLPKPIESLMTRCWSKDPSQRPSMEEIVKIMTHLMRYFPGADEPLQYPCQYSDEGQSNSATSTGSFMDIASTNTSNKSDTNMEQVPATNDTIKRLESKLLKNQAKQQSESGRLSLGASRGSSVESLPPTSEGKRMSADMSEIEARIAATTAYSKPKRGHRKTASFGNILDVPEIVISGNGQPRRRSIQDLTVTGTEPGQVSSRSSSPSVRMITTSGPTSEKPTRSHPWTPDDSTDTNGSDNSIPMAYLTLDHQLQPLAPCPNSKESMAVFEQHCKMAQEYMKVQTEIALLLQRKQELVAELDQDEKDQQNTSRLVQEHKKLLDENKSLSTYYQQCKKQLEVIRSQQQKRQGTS

[4] = Inhibition of human full length recombinant CDK9/cyclin T1 using KTFCGTPEYLAPE as substrate incubated for 40 mins in presence of [gamma-33ATP] by radiometric scintillation counting analysis
[5] = system: HepG2; assay: Induction of cell cycle arrest in human HepG2 cells assessed as accumulation at G0/G1 phase at 16 uM incubated for 24 hrs by propidium iodide staining based flow cytometry (reference value: 38.34%); assay type: functional
[6] = system: HepG2; assay: Induction of cell cycle arrest in human HepG2 cells assessed as accumulation at G0/G1 phase at 0.5 to 8 uM incubated for 24 hrs by propidium iodide staining based flow cytometry; assay type: functional; conditions: dose 0.5-8 µM

Structure (SMILES) | pIC50 [1] | pIC50 [2] | pIC50 [3] | also measured
Cc1cc(NC(=O)Nc2cccc(-c3nncn3C(C)C)n2)[nH]n1 | 6.85 |  |  | 
CC(C)n1cnnc1-c1cccc(NC(=O)Nc2ccc(-c3cnn(C)c3)cn2)n1 | 7.19 |  |  | 
CC(C)n1cnnc1-c1cccc(NC(=O)Nc2cc3ccccn3n2)n1 | 7.07 | 5.30 | < 5.00 | 
CC(C)n1cnnc1-c1cccc(NC(=O)N(C)c2ccc3ccccc3n2)n1 | 6.50 |  |  | 
CC(C)n1cnnc1-c1cccc(NC(=O)Nc2cccc(-c3cnn(C)c3)c2)n1 | 5.67 |  |  | 
CC(C)n1cnnc1-c1cccc(NC(=O)Nc2cc(C3CC3)nn2C)n1 | < 5.00 |  |  | 
CC(C)n1cnnc1-c1cccc(NC(=O)Nc2ccnc3ccccc23)n1 | 5.49 |  |  | 
CC(C)n1cnnc1-c1cccc(NC(=O)Oc2ccccc2)n1 | < 5.00 |  |  | 
C[C@H](CO)n1cnnc1-c1cccc(NC(=O)Nc2ncc3ccccc3n2)n1 | 7.09 | 5.14 | 5.24 | 
CC(C)n1cnnc1-c1cccc(NC(=O)Nc2cnc3ccccc3n2)n1 | 7.24 | 5.31 | 5.17 | 
CC(C)n1cnnc1-c1cccc(NC(=O)Nc2nn(C)c3ccccc23)n1 | 6.59 |  |  | 
CC(C)n1cnnc1-c1cccc(NC(=O)Nc2ccc3ccccc3n2)n1 | 7.16 | 5.63 | 5.34 | 
CC(C)n1cnnc1-c1cccc(NC(=O)Nc2ccn[nH]2)n1 | 7.18 |  |  | 
CC(C)n1cnnc1-c1cccc(NC(=O)Nc2cncc3ccccc23)n1 | < 5.00 |  |  | 
CC(C)n1cnnc1-c1cccc(NC(=O)Nc2ncc3ccccc3n2)n1 | 7.18 | 5.54 | 5.37 | 
CC(C)n1cnnc1-c1cccc(NC(=O)Nc2cnccn2)n1 | 7.04 |  |  | 
CC(C)OC(=O)Nc1cccc(-c2nncn2C(C)C)n1 | 6.33 |  |  | 
Cc1cc(NC(=O)Nc2cccc(-c3nncn3C(C)C)n2)n(C)n1 | 5.38 |  |  | 
CC(C)n1cnnc1-c1cccc(NC(=O)Nc2ncnc3ccccc23)n1 | 7.15 | 5.83 | 6.38 | 
CCc1cc(NC(=O)Nc2cccc(-c3nncn3C(C)C)n2)[nH]n1 | 6.82 |  |  | 
CC(C)n1cnnc1-c1cccc(NC(=O)Nc2cc(C3CC3)n[nH]2)n1 | 6.91 |  |  | 
CC(C)n1cnnc1-c1cccc(NC(=O)Nc2ncc3[nH]cnc3n2)n1 | 7.49 | 6.13 | 5.92 | 

Structure (SMILES) | pIC50 [1] | pIC50 [2] | pIC50 [3] | also measured
CC(C)n1cnnc1-c1cccc(NC(=O)Nc2cccnc2)n1 | 5.92 |  |  | 
CC(C)n1cnnc1-c1cccc(NC(=O)Nc2cnn(C)c2)n1 | 5.73 |  |  | 
CC(C)n1cnnc1-c1cccc(NC(=O)Nc2ccccn2)n1 | 7.36 | 5.96 | 6.13 | 
Cc1cc(NC(=O)Nc2cccc(-c3nncn3C(C)C)n2)nn1C | 6.85 |  |  | 
C[C@H](CO)n1cnnc1-c1cccc(NC(=O)Nc2ccc3ccccc3n2)n1 | 7.32 | 5.54 | 5.73 | 
CC(C)c1cc(NC(=O)Nc2cccc(-c3nncn3C(C)C)n2)[nH]n1 | 6.41 |  |  | 
CC(C)n1cnnc1-c1cccc(N(C)C(=O)N(C)c2cc3ccccn3n2)n1 | 5.18 |  |  | 
CC(C)n1cnnc1-c1cccc(NC(=O)Nc2cc3ccccc3cn2)n1 | 7.30 | 5.80 | 5.87 | 
CN[C@@H]1C[C@H]2O[C@@](C)([C@@H]1OC)n1c3ccccc3c3c4c(c5c6ccccc6n2c5c31)C(=O)NC4 [STAUROSPORINE] |  |  |  | pIC50 [4]: 7.22
CC(C)n1cnnc1-c1cccc(NC(=O)Nc2cnc3ccccn23)n1 | < 5.00 |  |  | 
CC(C)n1cnnc1-c1cccc(NC(=O)Nc2nccc3ccccc23)n1 | 7.31 | 6.70 | 7.07 | 
CC(C)n1cnnc1-c1cccc(NC(=O)Nc2ccc(-c3ccn(C)n3)cn2)n1 | 7.19 | 5.56 | 5.65 | 
CC(C)n1cnnc1-c1cccc(NC(=O)Nc2nc3ccccc3[nH]2)n1 | 6.96 |  |  | 
CC(C)n1cnnc1-c1cccc(NC(=O)NCc2ccccc2)n1 | 5.15 |  |  | 
CC(C)n1cnnc1-c1cccc(NC(=O)Nc2ccccc2)n1 | 5.55 |  |  | 
Cc1cc(F)c(C(=O)Nc2cccc(-c3nncn3C(C)C)n2)cc1-n1cnc(C2CC2)c1 |  |  |  | Activity [5]: Active; Activity [6]: inactive
CC(C)n1cnnc1-c1cccc(NC(=O)Nc2ccc(-c3cnn(C)c3)cc2)n1 | 6.61 |  |  | 
CC(C)n1cnnc1-c1cccc(NC(=O)Nc2ccncc2)n1 | 6.47 |  |  | 
CC(C)n1cnnc1-c1cccc(NC(=O)OCc2ccccc2)n1 | 5.82 |  |  | 
C[C@H](CO)n1cnnc1-c1cccc(NC(=O)Nc2cnc3ccccc3n2)n1 | 6.94 | < 5.00 | < 5.00 | 
CC(C)n1cnnc1-c1cccc(NC(=O)Nc2cnn3ccccc23)n1 | 5.44 |  |  | 
C[C@H](CO)n1cnnc1-c1cccc(NC(=O)Nc2nccc3ccccc23)n1 | 7.42 | 6.58 | 7.20 | 
